From patent publication US10570099B2, “Salts of an epidermal growth factor receptor kinase inhibitor” (Celgene CAR LLC, priority 2012, dated 2020)

Experiment: 1 week stability of primary screen salts at 40° C./75% RH and 80° C. (open vials, XRPD)
Assay type: physicochemical
Protocol: (open vials). TGA was carried out after the stability studies for samples containing sufficient material.

Compound	Stability 40° C./75% RH (open conditions)	Stability 80° C. (open conditions)
C=CC(=O)Nc1cccc(Nc2nc(Nc3ccc(N4CCN(C(C)=O)CC4)cc3OC)ncc2C(F)(F)F)c1.CC1(C)C2CCC1(CS(=O)(=O)O)C(=O)C2 [Camphor-10-sulfonic acid (1 eq.) Form I]	No form change, slight	No form change,
C=CC(=O)Nc1cccc(Nc2nc(Nc3ccc(N4CCN(C(C)=O)CC4)cc3OC)ncc2C(F)(F)F)c1.O=C(O)C(=O)O [Oxalate Form I]	No form change,	No form change,
C=CC(=O)Nc1cccc(Nc2nc(Nc3ccc(N4CCN(C(C)=O)CC4)cc3OC)ncc2C(F)(F)F)c1.Cc1ccc(S(=O)(=O)O)cc1 [Tosylate (1 equiv.) Form I]	No form change,	No form change,
C=CC(=O)Nc1cccc(Nc2nc(Nc3ccc(N4CCN(C(C)=O)CC4)cc3OC)ncc2C(F)(F)F)c1.O=S(=O)(O)c1ccc2ccccc2c1.O=S(=O)(O)c1ccc2ccccc2c1 [Naphthalene-2-sulfonic acid (2 eq.) Form IV]	Converted to Form II,	Converted to Form II,
C=CC(=O)Nc1cccc(Nc2nc(Nc3ccc(N4CCN(C(C)=O)CC4)cc3OC)ncc2C(F)(F)F)c1.O=S(=O)(O)c1ccc2ccccc2c1.O=S(=O)(O)c1ccc2ccccc2c1 [Naphthalene-2-sulfonic acid (2 eq.) Form II]	No form change,	–
C=CC(=O)Nc1cccc(Nc2nc(Nc3ccc(N4CCN(C(C)=O)CC4)cc3OC)ncc2C(F)(F)F)c1.CS(=O)(=O)O.CS(=O)(=O)O [Mesylate Form I]	Gum formed	Amorphous solid
C=CC(=O)Nc1cccc(Nc2nc(Nc3ccc(N4CCN(C(C)=O)CC4)cc3OC)ncc2C(F)(F)F)c1.O=S(=O)(O)c1cccc2c(S(=O)(=O)O)cccc12	No form change,	Possible form change,
C=CC(=O)Nc1cccc(Nc2nc(Nc3ccc(N4CCN(C(C)=O)CC4)cc3OC)ncc2C(F)(F)F)c1.O=S(=O)(O)c1ccc2ccccc2c1.O=S(=O)(O)c1ccc2ccccc2c1 [Naphthalene-2-sulfonic acid (2 eq.) Form III]	Converted to Form II,	Converted to Form II,
C=CC(=O)Nc1cccc(Nc2nc(Nc3ccc(N4CCN(C(C)=O)CC4)cc3OC)ncc2C(F)(F)F)c1.O=S(=O)(O)c1ccccc1 [Besylate (1 equiv.) Form II]	No form change, some	No form change, some
C=CC(=O)Nc1cccc(Nc2nc(Nc3ccc(N4CCN(C(C)=O)CC4)cc3OC)ncc2C(F)(F)F)c1.Cc1ccc(S(=O)(=O)O)cc1.Cc1ccc(S(=O)(=O)O)cc1 [Tosylate (2 equiv.) Form II]	Gum formed	Possible form change,
C=CC(=O)Nc1cccc(Nc2nc(Nc3ccc(N4CCN(C(C)=O)CC4)cc3OC)ncc2C(F)(F)F)c1.O=S(=O)(O)c1ccccc1 [Besylate (1 equiv.) Form I]	No form change,	No form change,
C=CC(=O)Nc1cccc(Nc2nc(Nc3ccc(N4CCN(C(C)=O)CC4)cc3OC)ncc2C(F)(F)F)c1.O=C(O)/C=C\C(=O)O [Maleate Form I]	No form change,	No form change,
C=CC(=O)Nc1cccc(Nc2nc(Nc3ccc(N4CCN(C(C)=O)CC4)cc3OC)ncc2C(F)(F)F)c1.O=C(O)C(=O)O [Oxalate Form II]	No form change,	Amorphous brown
C=CC(=O)Nc1cccc(Nc2nc(Nc3ccc(N4CCN(C(C)=O)CC4)cc3OC)ncc2C(F)(F)F)c1.O=C(O)/C=C\C(=O)O [Maleate Form III]	No clear form change	No clear form change
C=CC(=O)Nc1cccc(Nc2nc(Nc3ccc(N4CCN(C(C)=O)CC4)cc3OC)ncc2C(F)(F)F)c1.Cc1ccc(S(=O)(=O)O)cc1.Cc1ccc(S(=O)(=O)O)cc1 [Tosylate (2 equiv.) Form I]	No form change,	No form change,
C=CC(=O)Nc1cccc(Nc2nc(Nc3ccc(N4CCN(C(C)=O)CC4)cc3OC)ncc2C(F)(F)F)c1.O=S(=O)(O)c1ccccc1.O=S(=O)(O)c1ccccc1 [Besylate (2 equiv.) Form II]	No form change,	No form change,
C=CC(=O)Nc1cccc(Nc2nc(Nc3ccc(N4CCN(C(C)=O)CC4)cc3OC)ncc2C(F)(F)F)c1.O=S(=O)(O)c1ccc2ccccc2c1.O=S(=O)(O)c1ccc2ccccc2c1 [Naphthalene-2-sulfonic acid (2 eq.) Form I]	No form change, poor	No form change, poor
C=CC(=O)Nc1cccc(Nc2nc(Nc3ccc(N4CCN(C(C)=O)CC4)cc3OC)ncc2C(F)(F)F)c1.Cc1ccc(S(=O)(=O)O)cc1 [Tosylate (1 equiv.) Form II]	Gum formed	Possible form change,
C=CC(=O)Nc1cccc(Nc2nc(Nc3ccc(N4CCN(C(C)=O)CC4)cc3OC)ncc2C(F)(F)F)c1.O=C(O)/C=C\C(=O)O [Maleate Form II]	No form change,	No form change,
C=CC(=O)Nc1cccc(Nc2nc(Nc3ccc(N4CCN(C(C)=O)CC4)cc3OC)ncc2C(F)(F)F)c1.Cl.Cl [Hydrochloride (2 equiv.) Form I]	No form change,	No form change,
C=CC(=O)Nc1cccc(Nc2nc(Nc3ccc(N4CCN(C(C)=O)CC4)cc3OC)ncc2C(F)(F)F)c1.CC1(C)C2CCC1(CS(=O)(=O)O)C(=O)C2.CC1(C)C2CCC1(CS(=O)(=O)O)C(=O)C2 [Camphor-10-sulfonic acid (2 eq.) Form I]	Amorphous	Amorphous
C=CC(=O)Nc1cccc(Nc2nc(Nc3ccc(N4CCN(C(C)=O)CC4)cc3OC)ncc2C(F)(F)F)c1.CC1(C)C2CCC1(CS(=O)(=O)O)C(=O)C2 [Camphor-10-sulfonic acid (1 eq.) Form II]	–	Converted to Form I,
C=CC(=O)Nc1cccc(Nc2nc(Nc3ccc(N4CCN(C(C)=O)CC4)cc3OC)ncc2C(F)(F)F)c1.O=S(=O)(O)c1ccc2ccccc2c1	No form change, small	No form change,
Br.Br.C=CC(=O)Nc1cccc(Nc2nc(Nc3ccc(N4CCN(C(C)=O)CC4)cc3OC)ncc2C(F)(F)F)c1 [HBr (2 eq.) Form II]	Changed to Form I,	Potential new form,
C=CC(=O)Nc1cccc(Nc2nc(Nc3ccc(N4CCN(C(C)=O)CC4)cc3OC)ncc2C(F)(F)F)c1.Cl [Hydrochloride (1 equiv.) Form I]	No form change,	No form change,
